We go through four substances from patent publication US10746738B2, “Claudin-1 peptide reagents and methods” (THE REGENTS OF THE UNIVERSITY OF MICHIGAN, priority 2015, dated 2020).

One series concerns the target T1, claudin-1 (CLDN1) (Homo sapiens, UniProt O95832).
T1 construct: endogenous in cells; host or cells: SW620 human colorectal adenocarcinoma cells
T1 sequence (O95832 1-211): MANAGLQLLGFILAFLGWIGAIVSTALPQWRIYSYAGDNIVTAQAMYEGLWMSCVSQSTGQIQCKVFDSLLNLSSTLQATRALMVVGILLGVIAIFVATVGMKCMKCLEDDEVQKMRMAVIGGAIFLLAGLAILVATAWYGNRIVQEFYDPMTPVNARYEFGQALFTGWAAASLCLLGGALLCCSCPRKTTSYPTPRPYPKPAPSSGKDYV
Description: siRNA knockdown of CLDN1 expression, peptide and antibody binding to SW620 cells. The format is cell-based. The procedure: CLDN1 expression was knocked down using Dharmacon On-Target Plus SMARTpool Human CLDN1 siRNA (Thermo Scientific) according to the manufacturer's protocol. SW620 cells were plated overnight on coverslips in a 12-well plate at 0.2×10^6 cells/mL. The following day, cells were transfected with 3 μL DharmaFECT1 and either 25 nM CLDN1 or control siRNA. After 72 h, transfected cells were analyzed for CLDN1 expression through immunocytochemistry, a peptide binding study, or a Western blot of the cell lysate. For the immunocytochemistry experiment, cells were fixed with ice-cold methanol for 20 minutes at −20° C., blocked for 1 h at RT with PBS+2% BSA, stained with anti-human CLDN1 antibody at 5 μg/mL for 1 h at RT, then with goat anti-Rabbit AF488 (1:500) for 1 h at RT before being mounted on slides with DAPI with Prolong Gold. siRNA-transfected cells were also stained with 5 μM RTS-Cy5.5 or SPT-Cy5.5 for 30 minutes at 4° C., fixed with 4% PFA for 10 minutes at RT, then mounted on slides. Simultaneously, transfected cells were lysed with RIPA buffer containing Roche Mini-Complete EDTA-free Protease Inhibitor for 10 minutes on ice, collected and spun at 20,000×g for 10 minutes at 4° C. Supernatant was saved, total protein concentration quantified via a BCA assay, and 10 ug protein of each sample run on a Novex 4-20% 1.5 mm protein gel before transferring to a PVDF membrane. The membrane was blocked with PBST+5% non-fat milk for 1 h at 4° C., stained with either rabbit anti-CLDN1 Ab or mouse anti-tubulin Ab at 4° C. overnight, then with anti-rabbit HRP (1:500, for CLDN1) or anti-mouse HRP (1:500, for tubulin) for 1 h at RT before developing.
The specificity of peptide binding was validated on siRNA knockdown. […] These cells were transfected with siRNA to knockdown cell surface expression of claudin-1. […] The fluorescence intensities (mean±std) are shown (FIG. 2H). […] Given the experimental design and mean-squared-errors shown in FIG. 2H, with triplicate slides we have 98% power to obtain P<0.01 for interactions that show a 3-fold difference of differences.

Another series concerns colonic dysplasia. Description: In vivo fluorescence endoscopy of colon in CPC;Apc mouse. The settings on record: for fluorescence signal from dysplasia on endoscopy: CPC;Apc mouse colon. The source says: A genetically engineered mouse model (Cpc;Apc) that spontaneously forms adenomatous polyps in the colon was used for this study and handled according to Institutional Guidelines. The colons of anesthetized mice were first cleaned with water before imaging with a small animal endoscope (Karl Storz Veterinary Endoscope) using the white light channel to locate polyps by identifying anatomic landmarks and the distance of the endoscope tip from the anus. […] Fluorescent and reflectance images were then collected with the same endoscope set to the appropriate channels. Once in vivo imaging was complete, four of the mice used in the study were euthanized and colons harvested. Polyps and flat lesions detected during fluorescence imaging were located, removed, and processed for histology (H&E).
These mice are genetically-engineered to spontaneously develop colonic dysplasia, and the colonic lesions that develop are molecularly and histologically similar to that seen in human disease, making these mice a good model for monitoring cancer development. Because the extra-cellular domain of claudin-1 is completely homologous between human and mouse, peptides developed for human targets can be directly used in mouse imaging experiments. […] CPC;Apc mice were imaged at ˜3 months of age when they first begin to develop dysplasia. […] After imaging is completed, mice were euthanized, and the colons were resected. Based on the location of dysplastic lesions determined using fluorescence images collected with endoscopy, a pathologist measured the depth of dysplasia on histology, as shown by the dashed arrow in FIG. 7E. […] Images are obtained from mice over at least three sessions separated by 1 week to monitor for cancer progression.

Another series has as its system T84 monolayers. Kind of series: Transepithelial electrical resistance (TEER) and tight junction immunofluorescence. The format is cell-based, human. The procedure: T84 human colon carcinoma cells were grown in a 1:1 mixture of DMEM and Ham's F-12 culture medium supplemented with 5% FBS. To establish polarized monolayer, the cells were plated on transwell permeable polyester supports (1.12 cm^2, pore size 3 μm, Costar) until they reached confluence after ˜3-4 days, as determined by an increase in TEER.43 The cells were continually grown on transwell supports until the TEER reached ˜2000 Ω-cm^2. […] TEER was then measured at 6, 12 and 24 hours. The cells were fixed with 4% PFA for 12 min. After brief washing, 1% SDS in PBS was used to permeabilize the cells. These procedures were followed by 3% goat serum in PBS blocking for 30 min. Mouse anti-zonula occludens-1 (anti-ZO-1) (1:250, Life Technologies) and rabbit anti-claudin-1 (1:200, Life Technologies) antibodies were diluted in block buffer and incubated in humidity box overnight at 4° C. and fluorescent secondary antibodies were diluted to 1:1000 and incubated for 1 hour at RT. All images were obtained using Nikon A1 confocal microscope (MIL, University of Michigan).
We evaluated the effect of peptide binding on tight junction function using a polarized monolayer of T84 cells plated on transwell supports.

The test system of another series is SW620 cells. Kind of series: Confocal signal and photostability of Cy5- versus FITC-labeled peptide on cells. The format is cell-based, human. The settings on record: for mean (±std) fluorescence intensity: 10 μM, 4° C., 1 hour, n=6 cells. The procedure: We incubated pep*-Cy5 (RTS*-Cy5) and pep*-FITC ([…]) (10 μM) (FIG. 4A) with human colon adenocarcinoma (SW620) cells that over-express Claudin-1 at 4° C. for 1 hour. A supercontinuum “white light” laser provided continuous excitation at 1.5 mW for both λex=647 and 488 nm. Confocal images (Leica TCS SP5 Microsystems) were collected using Cy5 and FITC filters every 2 min. At time 0 min, peptide (RTS*-Cy5) binding to the cell surface (arrow) is shown, scale bar 10 μm (FIG. 4B). The mean (±std) fluorescence intensities for the Cy5 and FITC-labeled peptides, measured from n=6 cells, were 58.4±3.7 and 3.1±0.6 A.U. respectively, resulting in ˜20-fold increase in signal using the NIR fluorophore. We also found a 8.5% reduction in fluorescence intensity for pep*-Cy5 in comparison to 32% for pep*-FITC at 12 min, resulting ˜4-fold improvement in photostability (FIG. 4C).

Series [1] concerns human colonic adenocarcinoma cells (SW620, SW480, HT29, HCT116). Description: Cell binding assay on adenocarcinoma cell panel and co-localization with anti-claudin-1 antibody. Type of series: cell-based. As to the method:
SW620, SW480, and HT29 cells were plated at 0.5×10^6 cells/mL on coverslips on 12-well plates. The following day, the cells were treated with either 10 μM either RTS*-Cy5.5 or SPT*-Cy5.5 for 1 h at 4° C., fixed with 4% PFA for 10 minutes at RT, then counterstained with DAPI with Prolong Gold. Fluorescent images were collected and analyzed as detailed above. Statistical analysis was performed using a one-way ANOVA analysis on GraphPad Prism.
The cells were incubated with the peptide (10 μM) at 4° C. for 1 hour, washed 3× with PBS, fixed with 4% PFA, and mounted with ProLong Gold containing DAPI (Invitrogen). The mean (±std) fluorescence intensities were quantified using custom Matlab software (FIG. 5F). Levels of claudin-1 expression from cytosol (C) and membrane (M) of cells are shown on western blot (FIG. 5G). The cells were then incubated with 1:50 dilution of primary anti-claudin-1 rabbit mAb (4267, Invitrogen) for 1 hour at 4° C., and washed 3× with PBS at RT. The cells were further incubated with 1:500 dilution of […] labeled with Alexa Fluor 488 (Invitrogen) for 1 hour at RT. Co-localization of peptide (red) and antibody (green) binding to SW620 cells can be appreciated on the overlay fluorescence image (FIG. 5H). A Pearson's correlation of ρ=0.56 was calculated using custom Matlab software.

The next series relates to human colonic tissues. Description: Ex vivo staining of human colonic tissue sections. As to the method:
Human colon tissue was obtained through consenting patents at the University of Michigan Hospital. Tissue was frozen in OCT and sectioned 10 μm thick using a Cryostat. The sections were thawed before staining with 10 μM RTS*-Cy5 for 15 minutes at RT. Tissues were then washed with PBS, fixed with 4% PFA for 10 min at RT, and counterstained with DAPI with Prolong Gold. Fluorescence was imaged and quantified as outlined above.
Specimens of normal colonic mucosa, adenoma, and adenocarcinoma from the right side (proximal) of the colon were obtained from routine surveillance colonoscopy and surgically removed by endoscopic mucosal resection. The tissues were frozen in OCT (Sakura Finetek), cut in 10 μm sections, and incubated with pep*-Cy5 (5 μM) in 1×PBS for 15 minutes at RT. The sections were washed 3× with PBS. Confocal fluorescence images were collected from these sections with DAPI, FITC and Cy5 filter sets (Leica TCS SP5 Microsystems).
The mean fluorescence intensities (±SEM) from binding of pep*-Cy5 were measured for normal colonic mucosa (n=4, 7±2 AU), adenoma (n=6, 26±4 AU) and adenocarcinoma (n=5, 31±4 AU), P<0.001, unpaired t-test (FIG. 6, scale bar 500 μm). […] We found pep*-Cy5 and anti-claudin-1 mAb to stain colonic adenomas and adenocarcinomas in 11/12 (92%) and 10/10 (100%) sections, respectively.

Setting [2] is: at 12 min of continuous excitation.

Ends that are not written are not given here. Cy5.5 = near infrared dye label

As for “SPT*-Cy5.5: control scrambled sequence SPTPSSR labeled with Cy5.5 via the GGGSK linker (SPTPSSRGGGSK-{Cy5.5}) [reference compound]”, the “signal for siCL versus siCLDN1 cells” value with claudin-1 (CLDN1) (SW620 cells, control siRNA versus CLDN1 siRNA, 3 replicate slides) was determined as 0.80 fold-change. In the series with claudin-1 (CLDN1) (confocal microscopy), the “binding to the surface of SW620 cells” value was “minimal binding”. In addition, the “fluorescence signal from dysplasia on endoscopy” value in the series on colonic dysplasia is recorded as “minimal signal”.
For SPTPSSR [SPT*], the “fluorescence signal from dysplasia on endoscopy” value in the series with colonic dysplasia is listed as “minimal signal”. The “T/B ratio (mean±SD)” value in the series on colonic dysplasia (n=10 dysplasias, topical 100 μM, 5 minutes) is on record as 1.19±0.23. Further, the “trans-epithelial electrical resistance (TEER)” value in the series on T84 monolayers (5 μM peptide, up to 24 hours) is “high”. In the series on T84 monolayers (24 hours after peptide incubation), the “effect on tight junction function and ZO-1 distribution” value is listed as “neither peptide alters tight junction function or ZO-1 distribution”.
Take “pep*-FITC: RTSPSSR labeled at the C-terminus with FITC via a GGGSK linker”: the “mean (±std) fluorescence intensity” value in the series on SW620 cells is listed as 3.1±0.6 A.U. Besides, the “reduction in fluorescence intensity” value in the series with SW620 cells (setting [2]) turned out to be 32%.
In the case of “pep*-Cy5: RTSPSSR labeled at the C-terminus with Cy5 via a GGGSK linker”, in the series with SW620 cells, the “mean (±std) fluorescence intensity” value is given as 58.4±3.7 A.U. Further, in the series on SW620 cells (SW620 cells), the “increase in signal using Cy5 label versus FITC” value was ~20 fold. Moreover, the “improvement in photostability compared to FITC-labeled peptide” value with SW620 cells (setting [2]) is listed as ~4 fold. The “reduction in fluorescence intensity” value with SW620 cells (setting [2]) was 8.5%. In addition, the “binding to cell surface” value in series [1] (10 μM, 4° C., 1 hour, control tested on SW620 cells) is on record as “specific binding”. The “Pearson's correlation ρ, co-localization with anti-claudin-1 antibody” value in series [1] (SW620 cells) is 0.56. Further, the “mean fluorescence intensity (±SEM)” value in the series on human colonic tissues (adenocarcinoma, n=5) came out at 31±4 AU; in the series on human colonic tissues (adenoma, n=6) it was 26±4 AU; in the series with human colonic tissues (normal colonic mucosa, n=4), 7±2 AU. In addition, the sections stained in the series on human colonic tissues (adenocarcinomas, 10/10 sections) is recorded as 100%; in the series with human colonic tissues (colonic adenomas, 11/12 sections), 92%.
